Results as given in patent US20250333394A1, “Tiparp Inhibitor Compounds” (AbbVie Inc., priority 2024, published 2025).

System: DLD-1 BRCA2 (−/−) cells
Assay: CellTiter-Glo DLD-1 BRCA2 (−/−) cell assay for PARP1/2 inhibition
Assay type: cell-based
Details: Homo sapiens, 144 h, 6 days, read-out: DLD-1 BRCA2 (−/−) CTG EC50
In short: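 DLD-1 parent (500 cells/well) and DLD-1 BRCA2 (−/−) (1200 cells/well) cells in RPMI 1640 with 10% FBS exposed to compounds at 30 μM to 0.5 nM (3-fold dilutions) for 6 days at 37° C. Viability read by CellTiter-Glo luminescence on day 7.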

Question: Which EC50 does the source give for `C[C@@H]1CN(c2ncc(C(F)(F)F)cn2)CCN1C(=O)[C@H]1C[C@@H](c2c[nH]c(=O)c(C(F)(F)F)c2)C1` [Example 1, 5-[(1S,3s)-3-{(2R)-2-methyl-4-[5-(trifluoromethyl)pyrimidin-2-yl]piperazine-1-carbonyl}cyclobutyl]-3-(trifluoromethyl)pyridin-2(1H)-one] here?
Answer: The EC50 was 18.5 µM.
